According to US7476673B2, “Disubstituted chalcone oximes as selective agonists of RARγ retinoid receptors” (Allergan, Inc., priority 2003, dated 2009):

How the values were obtained:
RARβ [1] = target: T1, RARβ (Homo sapiens, UniProt P10826); test: ligand binding assay, RARβ; conditions: results expressed in Ki numbers, read-out: RAR Binding β
T1 sequence (P10826 1-455): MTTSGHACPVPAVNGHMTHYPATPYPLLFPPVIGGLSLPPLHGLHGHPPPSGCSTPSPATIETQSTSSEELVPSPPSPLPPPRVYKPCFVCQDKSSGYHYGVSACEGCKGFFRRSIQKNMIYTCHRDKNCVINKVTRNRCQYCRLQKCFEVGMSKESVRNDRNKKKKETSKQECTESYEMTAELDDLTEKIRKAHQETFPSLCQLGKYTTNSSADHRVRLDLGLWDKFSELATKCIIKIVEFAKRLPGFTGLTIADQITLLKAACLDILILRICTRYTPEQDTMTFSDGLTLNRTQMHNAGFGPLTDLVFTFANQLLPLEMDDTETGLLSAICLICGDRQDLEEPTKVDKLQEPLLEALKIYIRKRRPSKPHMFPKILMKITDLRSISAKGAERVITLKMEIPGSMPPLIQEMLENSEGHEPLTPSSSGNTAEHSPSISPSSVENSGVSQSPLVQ
From the text: (§1) A holoreceptor transactivation assay and a ligand binding assay which measure the antagonist/agonist like activity of the compounds of the invention, or their ability to bind to the several retinoid receptor subtypes, respectively, are described in published PCT Application No. WO WO93/11755 (particularly on pages 30-33 and 37-41) published on Jun. 24, 1993, the specification of which is also incorporated herein by reference. A detailed experimental procedure for holoreceptor transactivations has been described by Heyman et al. Cell 68, 397-406, (1992); Allegretto et al. J. Biol. Chem. 268, 26625-26633, and Mangelsdorf et al. The Retinoids: Biology, Chemistry and Medicine, pp 319-349, Raven Press Ltd., New York, which are expressly incorporated herein by reference. The results obtained in this assay are expressed in EC50 numbers, as they are also in the chimeric receptor transactivation assay. The results of the ligand binding assay are expressed in Ki numbers. (See Cheng et al. Biochemical Pharmacology Vol. 22 pp 3099-3108, expressly incorporated herein by reference.)
(§2) Table 1 discloses the activity of certain exemplary compounds of the invention in the above-described chimeric RAR receptor transactivation and binding assays.

RARα [2] = target: T2, RARα (Homo sapiens, UniProt P10276); test: chimeric receptor transactivation assay, RARα; format: cell-based; conditions: for EC50: chimeric receptor transactivation, read-out: RAR EC50 α; for % Efficiency α: percentage of maximum compared to standard TTNPB
T2 sequence (P10276 183-417 limits assumed): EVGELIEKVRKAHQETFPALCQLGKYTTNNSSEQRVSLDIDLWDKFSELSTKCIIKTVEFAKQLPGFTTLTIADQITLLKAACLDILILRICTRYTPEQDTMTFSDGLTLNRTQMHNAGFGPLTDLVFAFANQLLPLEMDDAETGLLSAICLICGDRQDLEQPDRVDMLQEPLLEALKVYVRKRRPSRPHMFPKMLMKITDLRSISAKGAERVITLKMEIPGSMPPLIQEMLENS
Protocol: (§3) The compounds of the invention were tested in certain assays for activity as agonists of RAR and RXR retinoid receptors. Specifically, one such assay is a chimeric receptor transactivation assay which tests for agonist-like activity in the RARα, RARβ and RARγ receptor subtypes, and which is based on work published by Feigner P. L. and Holm M. (1989) Focus, 112 is described in detail in U.S. Pat. No. 5,455,265. The specification of U.S. Pat. No. 5,455,265 is hereby expressly incorporated by reference.
as §1
(§4) Efficacy in a transactivation assay is expressed as a percentage of the maximum potency attained by the compound compared to a standard which, in this case, is the compound 4-[(1E)-2-(5,6,7,8-tetrahydro-5,5,8,8-tetramethyl-2-naphthalenyl)-1-propenyl]-benzoic acid. (TTNPB) This standard compound is described in PCT Publication WO 2002077169 A2.
as §2

RARα [3] = target: T3, RARα (Homo sapiens, UniProt P10276); test: ligand binding assay, RARα; conditions: results expressed in Ki numbers, read-out: RAR Binding α
T3 sequence (P10276 1-462): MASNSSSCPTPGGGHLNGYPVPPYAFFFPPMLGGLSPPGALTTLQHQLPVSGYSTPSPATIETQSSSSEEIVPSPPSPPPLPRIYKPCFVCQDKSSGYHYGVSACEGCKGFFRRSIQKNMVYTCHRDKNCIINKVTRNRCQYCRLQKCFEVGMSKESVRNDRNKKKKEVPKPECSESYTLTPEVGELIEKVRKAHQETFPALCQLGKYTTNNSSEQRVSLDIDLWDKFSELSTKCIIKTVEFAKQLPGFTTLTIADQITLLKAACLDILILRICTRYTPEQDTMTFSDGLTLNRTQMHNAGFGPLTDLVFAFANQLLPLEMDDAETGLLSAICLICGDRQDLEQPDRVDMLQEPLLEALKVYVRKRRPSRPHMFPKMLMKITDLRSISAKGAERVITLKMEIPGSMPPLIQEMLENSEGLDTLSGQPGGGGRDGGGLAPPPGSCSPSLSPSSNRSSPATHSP
From the text: as §1, §2

RARβ [4] = target: T4, RARβ (Homo sapiens, UniProt P10826); test: chimeric receptor transactivation assay, RARβ; format: cell-based; conditions: for EC50: chimeric receptor transactivation, read-out: RAR EC50 β; for % Efficiency β: percentage of maximum compared to standard TTNPB
T4 sequence (P10826 183-455 limits assumed): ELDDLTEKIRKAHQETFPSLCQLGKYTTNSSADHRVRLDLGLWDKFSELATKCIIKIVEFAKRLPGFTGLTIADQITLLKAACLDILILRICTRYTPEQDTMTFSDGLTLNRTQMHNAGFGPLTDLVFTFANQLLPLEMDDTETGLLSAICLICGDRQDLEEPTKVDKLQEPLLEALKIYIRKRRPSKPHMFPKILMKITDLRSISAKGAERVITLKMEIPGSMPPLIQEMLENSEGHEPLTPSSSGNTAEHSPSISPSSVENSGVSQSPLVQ
Protocol: as §3, §1, §4, §2

RARγ [5] = target: T5, RARγ (Homo sapiens, UniProt P13631); test: chimeric receptor transactivation assay, RARγ; format: cell-based; conditions: for EC50: chimeric receptor transactivation, read-out: RAR EC50 γ; for % Efficiency γ: percentage of maximum compared to standard TTNPB
T5 construct: % Efficiency γ; other: percentage of maximum compared to standard TTNPB
T5 sequence (P13631 185-454 limits assumed): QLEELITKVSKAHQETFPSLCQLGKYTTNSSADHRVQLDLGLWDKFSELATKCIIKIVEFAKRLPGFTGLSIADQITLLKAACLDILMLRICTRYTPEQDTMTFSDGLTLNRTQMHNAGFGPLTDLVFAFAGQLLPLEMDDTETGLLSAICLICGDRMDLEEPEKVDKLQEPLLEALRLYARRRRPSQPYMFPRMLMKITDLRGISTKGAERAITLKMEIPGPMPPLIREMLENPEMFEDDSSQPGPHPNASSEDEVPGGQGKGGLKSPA
Protocol: as §3, §1, §4, §2

RARγ [6] = target: T6, RARγ (Homo sapiens, UniProt P13631); test: ligand binding assay, RARγ; conditions: results expressed in Ki numbers, read-out: RAR Binding γ
T6 sequence (P13631 1-454): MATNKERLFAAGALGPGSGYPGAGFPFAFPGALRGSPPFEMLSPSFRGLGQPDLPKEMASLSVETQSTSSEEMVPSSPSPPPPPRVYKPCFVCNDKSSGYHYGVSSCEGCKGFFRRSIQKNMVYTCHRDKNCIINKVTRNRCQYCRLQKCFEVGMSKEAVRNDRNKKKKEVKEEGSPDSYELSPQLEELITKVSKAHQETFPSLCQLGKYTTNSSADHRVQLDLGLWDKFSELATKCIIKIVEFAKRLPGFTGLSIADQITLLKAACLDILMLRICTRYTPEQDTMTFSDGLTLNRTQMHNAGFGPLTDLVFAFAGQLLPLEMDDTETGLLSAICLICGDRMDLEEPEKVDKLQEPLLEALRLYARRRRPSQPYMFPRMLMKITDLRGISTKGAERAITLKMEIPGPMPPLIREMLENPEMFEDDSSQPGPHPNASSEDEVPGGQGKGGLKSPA
From the text: as §1, §2

Compound	Ki (RARβ [1])	EC50 (RARα [2])	% Efficiency α (RARα [2])	Ki (RARα [3])	EC50 (RARβ [4])	% Efficiency β (RARβ [4])	EC50 (RARγ [5])	% Efficiency γ (RARγ [5])	Ki (RARγ [6])
COc1cc2c(cc1C(/C=C/c1ccc(C(=O)O)cc1)=N/O)C(C)(C)CCC2(C)C	2.5 µM	80000 nM	29%	2 µM	1270 nM	65%	19 nM	98%	648 nM
CC1(C)CC(C)(C)c2cc(C(/C=C/c3ccc(C(=O)O)cc3F)=N\O)ccc21	27 µM	> 1000 nM	–	13 µM	249 nM	82%	9 nM	79%	264 nM
CC1(C)CCC(C)(C)c2cc(C(C=Cc3ccc(C(=O)O)cc3F)=NO)ccc21 [drawing 11]	8 µM	> 1000 nM	–	8 µM	118 nM	85%	0.85 nM	76%	34 nM
CC1=CCC(C)(C)c2cc(C(/C=C/c3ccc(C(=O)O)cc3F)=N\O)ccc21	11 µM	> 1000 nM	–	18 µM	445 nM	92%	11 nM	90%	28 nM
CC1(C)CC(C)(C)c2cc(C(C=Cc3ccc(C(=O)O)cc3)=NO)ccc2O1 [drawing 24]	> 10 µM	> 10000 nM	–	> 10 µM	> 10000 nM	–	> 10000 nM	–	> 10000 nM
COc1cc2c(cc1C(/C=C/c1ccc(C(=O)O)cc1)=N\O)C(C)(C)CCC2(C)C	10 µM	> 1000 nM	–	10 µM	5920 nM	44%	84 nM	107%	1500 nM
CC1(C)CCSc2ccc(C(/C=C/c3ccc(C(=O)O)cc3F)=N/O)cc21	8 µM	> 1000 nM	–	10 µM	173 nM	55%	10 nM	90%	15 nM
CC1=CCC(C)(C)c2cc(C(/C=C/c3ccc(C(=O)O)cc3F)=N/O)ccc21	11 µM	> 1000 nM	–	7 µM	168 nM	86%	2 nM	92%	256 nM

Continued, values first:

Ki (RARβ [1])	EC50 (RARα [2])	% Efficiency α (RARα [2])	Ki (RARα [3])	EC50 (RARβ [4])	% Efficiency β (RARβ [4])	EC50 (RARγ [5])	% Efficiency γ (RARγ [5])	Ki (RARγ [6])	Compound
2 µM	150 nM	81%	2.4 µM	34 nM	112%	0.37 nM	114%	14 nM	CC1(C)CCC(C)(C)c2cc(C(C=Cc3ccc(C(=O)O)cc3)=NO)ccc21 [drawing 9]
> 10 µM	> 10000 nM	–	2 µM	> 10000 nM	–	> 10000 nM	–	6000 nM	CC1(C)CCCc2cc(C(C=Cc3ccc(C(=O)O)cc3)=NO)ccc21 [drawing 16]
1.2 µM	2120 nM	51%	6 µM	65 nM	106%	0.09 nM	97%	5 nM	CC1(C)CCCc2ccc(C(C=Cc3ccc(C(=O)O)cc3)=NO)cc21 [drawing 12]
1.23 µM	> 1000 nM	–	4.5 µM	103 nM	102%	15 nM	100%	55 nM	CC1(C)CCSc2ccc(C(C=Cc3ccc(C(=O)O)cc3)=NO)cc21 [drawing 20]
